Measurements taken from paper PMC4788259 (PLoS Neglected Tropical Diseases, 2016).

tested on: E. multilocularis metacestodes; assay: PGI assay: phosphoglucose isomerase release from damaged metacestodes; format: cell-based, Echinococcus multilocularis; details: 10 μM, 5 days, single wells, relative to DB1127 (10 μM)
Description: The preparation of E. multilocularis metacestode material (strain H95) from intraperitoneally (i.p.) infected BALB/c mice was performed as described earlier. Metacestode vesicles were used for in vitro drug screening when they reached 2 to 4 mm in diameter.
For screening of the Malaria Box against E. multilocularis metacestodes, the PGI screening assay was applied that measures the release of the enzyme phosphoglucose isomerase (PGI) upon physical impairment of metacestodes. The screening setup was done in 24 well plates as described by Stadelmann et al. For initial screening, each drug was applied at 10 μM to metacestodes in single wells. As a positive control-drug, the dicationic diguanidino compound DB1127 (10 μM) was used and 0.1% DMSO was added as negative control. Metacestodes were cultured in the presence of the compounds for 5 days, after which PGI release was quantified exactly as stated in Stadelmann et al. […] Averages, standard deviations and EC50 values were calculated in Microsoft Excel 2010.

Structure (SMILES)	PGI (% of DB1127 at 10 uM) [%]
O=C(CCl)NCCOc1ccc(Cl)cc1Cl [MMV665927]	24.95
CCn1c(CN2CCN(Cc3ccccc3)CC2)nc2cc(NC(=O)c3cccs3)ccc21 [MMV020439]	-13.64
O=C(NC1CCN(Cc2ccccc2)CC1)c1cc(-c2ccncc2)nc2ccc(Cl)cc12 [MMV020275]	-18.74
CCn1nc(-c2ccc(C(=O)OC)cc2)nc2c(=O)n(C)c(=O)nc1-2 [MMV306025]	-10.99
FC(F)(F)c1cccc(Nc2nc(-c3ccccc3)nc3ncccc23)c1 [MMV665798]	30.38
Cn1c(=O)c2cc(C(=O)NCCCN3CCCCCC3)sc2c2ccccc21 [MMV019313]	-53.66
CCOc1cc2c(cc1OCC)C(c1cc(Cl)c(O)c(OCC)c1)NCC2 (stereo not drawn) [MMV000481]	-21.47
CC1(c2ccccc2)Nc2ccccc2-c2nc3ccccc3n21 (stereo not drawn) [MMV396715]	-22.40
COc1ccc(-c2cc(=O)oc3c4c(ccc23)OCN(Cc2ccc(F)cc2)C4)cc1 [MMV000604]	3.81
COc1cc(CNCCc2ccc(Cl)cc2)cc(OC)c1O [MMV128432]	-10.12
O=c1nc(C=Cc2ccc(Cl)cc2)oc2ccccc12 [MMV007977]	41.38
CCOC(=O)c1cn(CC)c2cc(N3CCCCC3)c(F)cc2c1=O [MMV665827]	-20.29
O=C(NCC(c1ccsc1)N1CCCCCC1)c1ccc(C(F)(F)F)cc1 (stereo not drawn) [MMV396672]	-34.18
Cc1c(C)n(CC(O)CNC2CCCCC2C)c2ccccc12 (stereo not drawn) [MMV665806]	5.77
CSc1ccccc1C(=O)Nc1nc(-c2ccccn2)cs1 [MMV001246]	-29.53
c1ccc(-c2ccc(-c3nc4ccccc4[nH]3)cc2)cc1 [MMV665891]	-89.45
CCOC(=O)C1(Cc2ccccc2)CCN(Cc2cccc(OC)c2O)CC1 [MMV666109]	-8.56
COc1ccc(N2CCN(C(CNC(=O)CC(C)(C)C)c3ccc4c(c3)OCO4)CC2)cc1 (stereo not drawn) [MMV665908]	-6.01
O=C(NC1CCCC1)c1ccc(N2CCC(NCc3cccc(C(F)(F)F)c3)CC2)cc1 [MMV666070]	-8.11
OC(Cn1nnc2ccccc21)Cn1c2ccc(Br)cc2c2cc(Br)ccc21 (stereo not drawn) [MMV666025]	1.46
N#Cc1nc(Cc2cccc3ccccc23)oc1N1CCN(C(c2ccccc2)c2ccccc2)CC1 [MMV396726]	-6.81
CCOc1ccc(C2N(C)c3ccccc3N2C)cc1 [MMV075490]	26.52
Cc1c(C)n(Cc2ccc(F)cc2)c2ccc(C(=O)NCc3ccco3)cc12 [MMV008149]	-33.19
O=C(Nc1ccc(-c2nc3cc4ccccc4cc3[nH]2)cc1)c1cccc(Br)c1 [MMV019241]	-30.92
Cl.c1ccc2c(NCCCCCCNc3c4c(nc5ccccc35)CCCC4)c3c(nc2c1)CCCC3 [MMV019555]	-3.16
Cc1cc(Nc2ccc(OCc3ccccc3)cc2)nc2cc(O)ccc12 [MMV007181]	115.72

Structure (SMILES)	PGI (% of DB1127 at 10 uM) [%]
CCOC(=O)C1=C(c2ccccc2)N=c2sc(=Cc3cc(C)n(-c4ccc(F)cc4)c3C)c(=O)n2C1c1cccc(OC)c1OC (stereo not drawn) [MMV666601]	-52.06
COc1cccc(Nc2nc(NCCO)c3ccccc3n2)c1.Cl [MMV011944]	15.53
CCOc1cccc(C(=O)Nc2ccc(-c3nc4ccccc4[nH]3)cc2)c1 [MMV019202]	-27.17
CCOC(=O)c1cnc2ccc(OC)cc2c1NCc1ccccc1 [MMV665813]	-12.77
CCC(c1ccccc1)c1nn2c(-c3cccs3)nnc2s1 (stereo not drawn) [MMV665876]	-39.84
O=C(Nc1cccc(-c2nc3ccccc3[nH]2)c1)c1cccc(NC(=O)c2ccco2)c1 [MMV665883]	21.02
COc1cccc(NC(=O)[C@H](C(C)C)n2c(=O)[nH]c3ccccc3c2=O)c1 [MMV665878]	-74.00
Cc1cc(=O)oc2c1ccc1oc(C(=O)c3ccccc3)c(C)c12 [MMV006753]	-7.57
Cl.Clc1cc(Br)ccc1-c1ccc(CNCC2CCNCC2)o1 [MMV019918]	-10.89
CCc1ccc(Nc2cc(C)c3ccc(O)cc3n2)cc1.Cl [MMV000570]	-6.94
COc1ccc2c(c1)C1(Nc3ccccc3-c3nc4ccccc4n31)C(=O)N2 (stereo not drawn) [MMV396749]	0.0365
CCOC(=O)c1c[nH]c2ccc(CC)cc2c1=O [MMV007116]	80.46
COc1ccc(-c2nonc2NC(=O)c2cccc(Cl)c2)cc1OC [MMV020660]	-20.61
COc1ccc(-c2cc3c(SCC(=O)Nc4cc(C(F)(F)F)ccc4Cl)nccn3n2)cc1 [MMV396679]	-59.06
OC(CNCC1CCCO1)Cn1c2ccc(Cl)cc2c2cc(Cl)ccc21 (stereo not drawn) [MMV396736]	50.77
COc1ccc(CCN2CCC(CN(C)Cc3cnn(-c4ccccc4)c3)CC2)cc1 [MMV666069]	-33.62
COC(=O)c1ccc(Cl)c2c1C1C=CCC1C(c1cccc3ccccc13)N2 (stereo not drawn) [MMV667489]	2.16
CCOC(=O)C1CCN(C(=O)CN2C(=O)c3ccccc3C2c2c[nH]c3ccccc23)CC1 (stereo not drawn) [MMV011576]	-33.19
O=C(c1ccccc1F)N(Cc1ccc(Cl)cc1)c1ccccn1 [MMV665899]	-103.42
COc1cccc(Cn2c(Oc3ccccc3)nc3c2c(=O)n(C)c(=O)n3C)c1 [MMV396705]	-23.91
O=C(NC1CCN(Cc2ccccc2)CC1)c1cc(-c2cccnc2)nc2ccc(Cl)cc12 [MMV020490]	-15.64
CC1CC2=C(CC1CNCCCN(C)C)C(C)(C)CCC2 (stereo not drawn) [MMV665830]	-3.36
CCc1ccc(CNCC(O)c2ccccc2)cc1.Cl (stereo not drawn) [MMV665812]	-2.45
CCN(CC)c1cc(C)c2cc(NC(=O)c3cccc(OC)c3)ccc2n1 [MMV000498]	4.05
Cc1[nH]c(-c2ccc(F)cc2)cc1C(=O)NC1CCN(Cc2ccccc2)CC1 [MMV019738]	12.98
O=c1c2c([nH]c3ccccc13)CCCC2 [MMV665843]	-19.31

Structure (SMILES)	PGI (% of DB1127 at 10 uM) [%]
CCOc1ccc(Nc2ccnc3cc(Cl)ccc23)cc1 [MMV007285]	-9.06
CCOc1ccc(-n2cc(-c3ccccc3)c3c(SCc4cc(C)ccc4C)ncnc32)cc1 [MMV085471]	-19.26
Cc1ccc(Cl)cc1N1CCN(CCCNC(=O)C2CCN(c3nc4ccccc4[nH]3)CC2)CC1 [MMV019746]	-24.98
Cc1cc(NC(=O)c2cccc(C(F)(F)F)c2)n(-c2nc(-c3ccc4c(c3)OCO4)cs2)n1 [MMV396681]	-33.55
CCCc1cc(O)c2c3c(c(=O)oc2c1)CN(C)CC3 [MMV665841]	-34.14
O=C(CCc1ccco1)NC1CCN(CC2(c3ccc(Cl)cc3)CCC2)CC1 [MMV666108]	-18.89
O=C(Nc1ccc(Cl)cc1C(=O)Nc1ccncc1)c1ccc(Cl)cc1Cl [MMV666057]	-78.23
FC(F)(F)c1ccc(Nc2nnnc3ccccc23)cc1 [MMV665935]	-27.43
Oc1c(C(Nc2ccccn2)c2cccc(Oc3ccccc3)c2)ccc2cccnc12 (stereo not drawn) [MMV665814]	-6.04
Cc1cccc(-n2ncc3c(O)nc(-n4nc(C)cc4NC(=O)c4cc5ccccc5o4)nc32)c1 [MMV403679]	-25.18
COc1cccc(C=Cc2nc(=O)c3ccccc3o2)c1OC [MMV666693]	-16.84
c1ccc2cc3c(Nc4ccc(N5CCOCC5)cc4)ccnc3cc2c1 [MMV006861]	-26.86
COc1ccc(C)c2sc(N(Cc3cccnc3)C(=O)c3ccc(C#N)cc3)nc12 [MMV001241]	-0.13
O=C1c2ccccc2C2=Nc3ccccc3SC(c3cccc(F)c3)C12 (stereo not drawn) [MMV006389]	-15.52
CC(=O)NCCc1nc2ccccc2n1Cc1ccc(C(C)C)cc1 [MMV007617]	-2.63
O=C(NC1CCN(Cc2ccccc2)CC1)c1cc2nc(-c3ccc(Cl)s3)cc(C(F)(F)F)n2n1 [MMV396635]	-11.44
COc1ccc(-c2c(C)nn3c(N)c(C#N)cnc23)cc1OC [MMV396797]	-51.42
CCCCc1c(CCC)c(=N)c2ccccc2n1C.I [MMV007764]	29.51
Cc1cc(C)c2c(c1)OCN(Cc1ccccc1Cl)C2 [MMV006558]	-21.27
Cc1ccc(CSCc2ccc(C(=O)NC3CC3)o2)cc1 [MMV007571]	-9.42
O=c1nc(C=Cc2ccc(Br)cc2)oc2ccccc12 [MMV666599]	22.37
COc1cccc(NC(=O)Cn2c(C)c(C#N)c3ccccc32)c1 [MMV665826]	-17.93
OCCNc1nc(Nc2ccc(Cl)c(Cl)c2)nc2ccccc12 [MMV001041]	6.70
CCCc1c(CC)c(=N)c2ccccc2n1C [MMV008416]	-40.39
COc1cc2c3cc1Oc1c(OC)c(OC)cc4c1C(Cc1ccc(O)c(c1)Oc1ccc(cc1)CC3N(C)CC2)N(C)CC4.Cl (stereo not drawn) [MMV007474]	-10.35
Cl.OC(CNCc1ccccc1)Cn1c2ccccc2c2ccccc21 (stereo not drawn) [MMV000839]	-2.41
